Our source for the IC50 values is patent publication US11358952B2, “Substituted 4-aminoisoindoline-1,3-dione compounds, compositions thereof, and methods of treatment therewith” (Celgene Corporation, priority 2018, dated 2022).

The structures appear in SMILES notation.

The experiment concerns SU-DHL-4 cell line. Nature of the experiment: SU-DHL-4 cell proliferation assay (Cell Titer-Glo viability). In kind it is cell-based. The settings on record: Homo sapiens; cell viability IC50 activity level, DLBCL cell line SU-DHL-4, 120 hours post-treatment; read-out: SU-DHL-4 Act. How it is done:
SU-DHL-4 Cell Proliferation Assay.
The following is an example of an assay that can be used to determine the anti-proliferative activity of Isoindolinedione Compounds in a DLBCL cell line, for example, the SU-DHL-4 cell line (Deutsche Sammlung von Mikroorganismen and Zellkulturen GmbH [DSMZ]: catalogue number ACC-495) at 120 hours post-treatment. The seeding density for SU-DHL-4 can be optimized to ensure assay linearity in 1536-well plates.
Increasing concentrations of test compounds (0.5 nM to 10 μM) were spotted in a 20-point dilution fashion (unevenly spaced data points) via an acoustic dispenser (EDC ATS-100) into an empty 1536-well plate. The DMSO concentration was kept constant for a final assay concentration of 0.1% DMSO. Prior to testing, SU-DHL-4 cells were grown in RPMI-1640 (Roswell Park Memorial Institute—1640) medium with 10% FBS (fetal bovine serum: HyClone) and expanded in culture flasks to provide sufficient amounts of starting material. Cells were then diluted to 500 cells per well in a 5 μL volume, and added directly to the compound-spotted 1536-well plates. Cells were allowed to grow for 120 hours in 5% CO2 at 37° C. At the time when exposure of cells to compound began (to), initial viable cell number was assessed via Cell Titer-Glo® Luminescent Cell Viability Assay at a 1 vol:2 vol ratio according to manufacturer's instructions (Promega Corporation, Madison, Wis.) by quantifying the level of luminescence generated by adenosine-5′-triphosphate (ATP) present in viable cells. After 120 hours, cell viability of the treated cells was assessed via Cell Titer-Gb® and read for luminescence. All growth inhibition curves were processed and evaluated using Activity Base (IDBS, Alameda, Calif.). Cell viability IC50 values were calculated using a four parameter logistic model (sigmoidal dose-response model): y=(A+((B−A)/(1+((C/x)^D)))) wherein: A=YMin B=YMax C=EC50 D=Hill slope IC50=the concentration of the compound when Y=50% of DMSO control Y=cell viability measured as luminescence unit, and x=concentration of compound.
As for `CCOC1(C)CCN(Cc2ccc(CNc3cccc4c3C(=O)N(C3CCC(=O)NC3=O)C4=O)cc2F)CC1` (stereo not drawn) [Cpd 159, 2-(2,6-dioxopiperidin-3-yl)-4-(4-((4-ethoxy-4-methylpiperidin-1-yl)methyl)-3-fluorobenzylamino)isoindoline-1,3-dione], the IC50 was under 200 nM.
For the compound `CC1(C)COCCN1C1CN(Cc2ccc(CNc3cccc4c3C(=O)N(C3CCC(=O)NC3=O)C4=O)cc2)C1` (stereo not drawn) [Cpd 239, 4-(4-((3-(3,3-dimethylmorpholino)azetidin-1-yl)methyl)benzylamino)-2-(2,6-dioxopiperidin-3-yl)isoindoline-1,3-dione], the IC50 lay within 501 to 750 nM.
Regarding `O=C1CCC(N2C(=O)c3cccc(NCc4ccc(CN5CCC(c6ccccn6)CC5)cc4)c3C2=O)C(=O)N1` (stereo not drawn) [Cpd 31, 2-(2,6-dioxopiperidin-3-yl)-4-(4-((4-(pyridin-2-yl)piperidin-1-yl)methyl)benzylamino)isoindoline-1,3-dione], the IC50 fell in the range of 200 to 500 nM.
With `O=C1CCC(N2C(=O)c3cccc(NCc4ccc(CN5CCC(F)(c6ccccn6)CC5)cc4)c3C2=O)C(=O)N1` (stereo not drawn) [Cpd 19, 2-(2,6-dioxopiperidin-3-yl)-4-(4-((4-fluoro-4-(pyridin-2-yl)piperidin-1-yl)methyl)benzylamino)isoindoline-1,3-dione] the figure was 501 to 750 nM.
Consider `CC(C)OC1CCN(Cc2ccc(CNc3cccc4c3C(=O)N(C3CCC(=O)NC3=O)C4=O)cc2)CC1` (stereo not drawn) [Cpd 24, 2-(2,6-dioxopiperidin-3-yl)-4-(4-((4-isopropoxypiperidin-1-yl)methyl)benzylamino)isoindoline-1,3-dione], for which the IC50 lay within 200 to 500 nM.
With `O=C1CCC(N2C(=O)c3cccc(NCc4ccc(CN5CC6(CCC6)C5)cc4)c3C2=O)C(=O)N1` (stereo not drawn) [Cpd 115, 4-(4-(2-azaspiro[3.3]heptan-2-ylmethyl)benzylamino)-2-(2,6-dioxopiperidin-3-yl)isoindoline-1,3-dione] the figure was under 200 nM; with `Cc1nnc(C2CCN(Cc3ccc(CNc4cccc5c4C(=O)N(C4CCC(=O)NC4=O)C5=O)c(F)c3)CC2)o1` (stereo not drawn) [Cpd 178, 2-(2,6-dioxopiperidin-3-yl)-4-(2-fluoro-4-((4-(5-methyl-1,3,4-oxadiazol-2-yl)piperidin-1-yl)methyl)benzylamino)isoindoline-1,3-dione], 200 to 500 nM.
Turning to `Cc1cc(C#N)cc(F)c1N1CCN(Cc2ccc(CNc3cccc4c3C(=O)N(C3CCC(=O)NC3=O)C4=O)cc2)CC1` (stereo not drawn) [Cpd 27, 4-(4-(4-((2-(2,6-dioxopiperidin-3-yl)-1,3-dioxoisoindolin-4-ylamino)methyl)benzyl)piperazin-1-yl)-3-fluoro-5-methylbenzonitrile], the IC50 is 200 to 500 nM.
As for `Cc1cc(CNc2cccc3c2C(=O)N(C2CCC(=O)NC2=O)C3=O)ccc1CN1CCN(C(C)(C)C)CC1` (stereo not drawn) [Cpd 68, 4-(4-((4-tert-butylpiperazin-1-yl)methyl)-3-methylbenzylamino)-2-(2,6-dioxopiperidin-3-yl)isoindoline-1,3-dione], the figure is under 200 nM.
As for `NC(=O)c1ccc(N2CCN(Cc3ccc(CNc4cccc5c4C(=O)N([C@H]4CCC(=O)NC4=O)C5=O)cc3)CC2)nc1` [Cpd 203, (S)-6-(4-(4-((2-(2,6-dioxopiperidin-3-yl)-1,3-dioxoisoindolin-4-ylamino)methyl)benzyl)piperazin-1-yl)nicotinamide], the IC50 is under 200 nM.
Consider `Cc1cc(N2CCN(Cc3ccc(CNc4cccc5c4C(=O)N(C4CCC(=O)NC4=O)C5=O)cc3)CC2)no1` (stereo not drawn) [Cpd 199, 2-(2,6-dioxopiperidin-3-yl)-4-(4-((4-(5-methylisoxazol-3-yl)piperazin-1-yl)methyl)benzylamino)isoindoline-1,3-dione], for which the IC50 was under 200 nM.
With `Cc1cc(CNc2cccc3c2C(=O)N(C2CCC(=O)NC2=O)C3=O)ccc1CN1CCOCC1` (stereo not drawn) [Cpd 155, 2-(2,6-dioxopiperidin-3-yl)-4-(3-methyl-4-(morpholinomethyl)benzylamino) isoindoline-1,3-dione] the figure was 751 to 1000 nM; with `Cc1cc(CNc2cccc3c2C(=O)N(C2CCC(=O)NC2=O)C3=O)ccc1CN1CCCOCC1` (stereo not drawn) [Cpd 244, 4-(4-((1,4-oxazepan-4-yl)methyl)-3-methylbenzylamino)-2-(2,6-dioxopiperidin-3-yl)isoindoline-1,3-dione], 501 to 750 nM.
Take `Cc1cc(CNc2cccc3c2C(=O)N(C2CCC(=O)NC2=O)C3=O)ccc1CN1CCN(c2ccc(C#N)cc2Cl)CC1` (stereo not drawn) [Cpd 61, 3-chloro-4-(4-(4-((2-(2,6-dioxopiperidin-3-yl)-1,3-dioxoisoindolin-4-ylamino)methyl)-2-methylbenzyl)piperazin-1-yl)benzonitrile]: the IC50 was under 200 nM.
As for `NC(=O)c1cccc(N2CCN(Cc3ccc(CNc4cccc5c4C(=O)N(C4CCC(=O)NC4=O)C5=O)cc3)CC2)n1` (stereo not drawn) [Cpd 181, 6-(4-(4-((2-(2,6-dioxopiperidin-3-yl)-1,3-dioxoisoindolin-4-ylamino)methyl)benzyl)piperazin-1-yl)picolinamide], the IC50 is under 200 nM.
For `O=C1CCC(N2C(=O)c3cccc(NCc4ccc(CN5Cc6ccccc6C5)cc4)c3C2=O)C(=O)N1` (stereo not drawn) [Cpd 163, 2-(2,6-dioxopiperidin-3-yl)-4-(4-(isoindolin-2-ylmethyl)benzylamino)isoindoline-1,3-dione], the IC50 was under 200 nM.
In the case of `O=C1CCC(N2C(=O)c3cccc(NCc4ccc(CN5CCN(c6nnc(C(F)(F)F)s6)CC5)cc4F)c3C2=O)C(=O)N1` (stereo not drawn) [Cpd 177, 2-(2,6-dioxopiperidin-3-yl)-4-(2-fluoro-4-((4-(5-(trifluoromethyl)-1,3,4-thiadiazol-2-yl)piperazin-1-yl)methyl)benzylamino)isoindoline-1,3-dione], the IC50 was under 200 nM.
With `CCC1CCN(Cc2ccc(CNc3cccc4c3C(=O)N(C3CCC(=O)NC3=O)C4=O)cc2C)CC1` (stereo not drawn) [Cpd 41, 2-(2,6-dioxopiperidin-3-yl)-4-(4-((4-ethylpiperidin-1-yl)methyl)-3-methylbenzylamino)isoindoline-1,3-dione] the figure was under 200 nM; with `Cc1cc(CNc2cccc3c2C(=O)N(C2CCC(=O)NC2=O)C3=O)ccc1CN1CC2(CCOC2)C1` (stereo not drawn) [Cpd 243, 4-(4-(6-oxa-2-azaspiro[3.4]octan-2-ylmethyl)-3-methylbenzylamino)-2-(2,6-dioxopiperidin-3-yl)isoindoine-1,3-dione], under 200 nM.
As for `Cc1cc(CN2CC(c3ccc(C#N)cc3)C2)ccc1CNc1cccc2c1C(=O)N(C1CCC(=O)NC1=O)C2=O` (stereo not drawn) [Cpd 105, 4-(1-(4-((2-(2,6-dioxopiperidin-3-yl)-1,3-dioxoisoindoliln-4-ylamino)methyl)-3-methylbenzyl)azetidin-3-yl)benzonitrile], the figure is under 200 nM; as for `O=C1CCC(N2C(=O)c3cccc(NCc4ccc(CN5CC(c6ccccn6)C5)cc4F)c3C2=O)C(=O)N1` (stereo not drawn) [Cpd 165, 2-(2,6-dioxopiperidin-3-yl)-4-(2-fluoro-4-((3-(pyridin-2-yl)azetidin-1-yl)methyl)benzylamino)isoindoline-1,3-dione], under 200 nM; as for `O=C1CCC(N2C(=O)c3cccc(NCc4ccc(CN5CC(N6CCOCC6)C5)cc4F)c3C2=O)C(=O)N1` (stereo not drawn) [Cpd 171, 2-(2,6-dioxopiperidin-3-yl)-4-(2-fluoro-4-((3-morpholinoazetidin-1-yl)methyl)benzylamino)isoindoline-1,3-dione], under 200 nM.
As for `O=C1CCC(N2C(=O)c3cccc(NCc4ccc(CN5CCC(c6cc(F)cc(F)c6)CC5)cc4)c3C2=O)C(=O)N1` (stereo not drawn) [Cpd 20, 4-(4-((4-(3,5-difluorophenyl)piperidin-1-yl)methyl)benzylamino)-2-(2,6-dioxopiperidin-3-yl)isoindoline-1,3-dione], the figure is 200 to 500 nM; as for `Cc1cc(CN2CCC(C(C)C)CC2)ccc1CNc1cccc2c1C(=O)N(C1CCC(=O)NC1=O)C2=O` (stereo not drawn) [Cpd 100, 2-(2,6-dioxopiperidin-3-yl)-4-(4-((4-isopropylpiperidin-1-yl)methyl)-2-methylbenzylamino)isoindoline-1,3-dione], 200 to 500 nM; as for `O=C1CCC(N2C(=O)c3cccc(NCc4ccc(CN5CC(c6cccc(F)c6)C5)cc4)c3C2=O)C(=O)N1` (stereo not drawn) [Cpd 13, 2-(2,6-dioxopiperidin-3-yl)-4-(4-((3-(3-fluorophenyl)azetidin-1-yl)methyl)benzylamino)isoindoline-1,3-dione], 501 to 750 nM.
Take `Cc1nsc(N2CCN(Cc3ccc(CNc4cccc5c4C(=O)N(C4CCC(=O)NC4=O)C5=O)cc3)CC2)n1` (stereo not drawn) [Cpd 194, 2-(2,6-dioxopiperidin-3-yl)-4-(4-((4-(3-methyl-1,2,4-thiadiazol-5-yl)piperazin-1-yl)methyl)benzylamino)isoindoline-1,3-dione]: the IC50 is under 200 nM.
For the compound `Cc1cc(CNc2cccc3c2C(=O)N(C2CCC(=O)NC2=O)C3=O)ccc1CN1CC(Oc2ccccc2)C1` (stereo not drawn) [Cpd 82, 2-(2,6-dioxopiperidin-3-yl)-4-(3-methyl-4-((3-phenoxyazetidin-1-yl)methyl)benzylamino)isoindoline-1,3-dione], the IC50 lay in the range of 501 to 750 nM.
